This experiment has as its target T1, HDAC-1 (Homo sapiens, UniProt Q13547).
T1 construct: made in house; host or cells: Sf9 or Sf21 insect cells (baculovirus, donor vector pFB-GSTX3)
Kind of experiment: HDAC Inhibition Assay (purified GST-HDAC protein). It counts as biochemical. From the text: The baculovirus donor vector pFB-GSTX3 is used to generate a recombinant baculovirus that can express the HDAC polypeptide. Transfer vectors containing the HDAC coding region are transfected into the DH10Bac cell line (GIBCO) and plated on selective agar plates. Colonies without insertion of the fusion sequence into the viral genome (carried by the bacteria) are blue. Single, white colonies are picked and viral DNAs (bacmid) are isolated from the bacteria by standard plasmid purification procedures. Sf9 cells or Sf21 (American Type Culture Collection) cells are then transfected in […] flasks with the viral DNA using Cellfectin reagent.
Virus-containing media is collected from the transfected cell culture and used for infection to increase its titer. Virus-containing media obtained after two rounds of infection is used for large-scale protein expression. For large-scale protein expression 100 cm^2 round tissue culture plates are seeded with 5×10^7 cells/plate and infected with 1 mL of virus-containing media (at an approximately MOI of 5). After 3 days, the cells are scraped off the plate and centrifuged at 500 rpm for 5 minutes. Cell pellets from 10-20, 100 cm^2 plates, are re-suspended in 50 mL of ice-cold lysis buffer (25 mM tris-HCl, pH 7.5, 2 mM EDTA, 1% NP-40, 1 mM DTT, 1 mM P MSF). The cells are stirred on ice for 15 minutes and then centrifuged at 5,000 rpms for 20 minutes.
The centrifuged cell lysate is loaded onto a 2 mL glutathione-sepharose column (Pharmacia) and is washed thrice with 10 mL of 25 mM tris-HCl, pH 7.5, 2 mM EDTA, 1 mM DTT, 200 mM NaCl. The GST-tagged proteins are then eluted by 10 applications (1 mL each) of 25 mM tris-HCl, pH 7.5, 10 mM reduced-glutathione, 100 mM NaCl, 1 mM DTT, 10% glycerol and stored at −70° C.
HDAC assays with purified GST-HDAC protein are carried out in a final volume of 30 μL containing 15 ng of GST-HDAC protein, 20 mM tris-HCl, pH 7.5, 1 mM MnCl2, 10 mM MgCl2, 1 mM DTT, 3 μg/mL poly(Glu,Tyr) 4:1, 1% DMSO, 2.0 μM ATP (γ-[^33P]-ATP 0.1 μCi). The activity is assayed in the presence or absence of inhibitors. […] Subsequently, […] of the reaction mixture are transferred onto EMMOBILON-PVDF membrane (Millipore) previously soaked for 5 minutes with methanol, rinsed with water, then soaked for 5 minutes with 0.5% H3PO4 and mounted on vacuum manifold with disconnected vacuum source. After spotting all samples, a vacuum is connected and each well rinsed with 200 μL 0.5% H3PO4. Membranes are removed and washed four times on a shaker with 1.0% H3PO4, once with ethanol. Membranes are counted after drying at ambient temperature, mounting in Packard TopCount 96-well frame, and addition of 10 μL/well of MICROSCINT™ (Packard).
• Input: 3×4 μL stopped assay on IMMOBILON membrane, not washed • Background (3 wells): assay with H2O instead of enzyme • Positive control (4 wells): 3% DMSO instead of compound • Bath control (1 well): no reaction mix
In each experiment, the actual inhibition by reference compound is used for normalization of IC50 values to the basis of an average value of the reference inhibitor:
Normalized IC50=measured IC50 average ref. IC50/measured ref. IC50
T1 sequence (Q13547 whole entry, species assumed): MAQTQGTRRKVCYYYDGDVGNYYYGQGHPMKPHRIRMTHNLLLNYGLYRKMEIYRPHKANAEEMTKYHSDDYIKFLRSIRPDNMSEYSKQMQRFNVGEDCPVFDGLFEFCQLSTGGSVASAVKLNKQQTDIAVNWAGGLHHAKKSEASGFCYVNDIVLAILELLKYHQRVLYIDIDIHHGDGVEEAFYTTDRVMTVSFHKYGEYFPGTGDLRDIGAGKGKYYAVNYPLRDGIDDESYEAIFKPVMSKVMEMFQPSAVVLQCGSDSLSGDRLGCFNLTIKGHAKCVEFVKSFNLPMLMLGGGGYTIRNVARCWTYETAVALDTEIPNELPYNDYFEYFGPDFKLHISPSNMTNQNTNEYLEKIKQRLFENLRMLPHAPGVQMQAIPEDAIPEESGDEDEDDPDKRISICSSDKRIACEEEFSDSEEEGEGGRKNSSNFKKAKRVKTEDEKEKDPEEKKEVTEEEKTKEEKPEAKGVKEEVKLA
Usually IC50 stands for the concentration that gives 50% inhibition. A lower IC50 goes with greater potency in that assay. In turn, `O=C(CCc1ccc(CN2CCCC(c3c(-c4ccccc4)[nH]c4ccccc34)C2)cc1)NO` (centres unmarked) [Compound 16, N-Hydroxy-3-{4-[3-(2-phenyl-1H-indol-3-yl)-piperidin-1-ylmethyl]-phenyl}-propionamide] had an IC50 of 2.2 nM.
As for `CC1(C)c2[nH]c3ccccc3c2CCN1Cc1ccc(/C=C/C(=O)NO)cc1` [Compound 22, (E)-3-[4-(1,1-Dimethyl-1,3,4,9-tetrahydro-beta-carbolin-2-ylmethyl)-phenyl]-N-hydroxy-acrylamide], the figure is 150 nM; as for `O=C(/C=C/c1ccc(CN2CCOC(c3nc(-c4ccccc4)no3)C2)cc1)NO` (centres unmarked) [Compound 25, (E)-N-Hydroxy-3-{4-[2-(3-phenyl-[1,2,4]oxadiazol-5-yl)-morpholin-4-ylmethyl]-phenyl}-acrylamide], 39 nM.
With `O=C(/C=C/c1ccc(CN2CCN(Cc3ccccc3)CC2)cc1)NO` [Compound 26, (E)-3-[4-(4-Benzyl-piperazin-1-ylmethyl)-phenyl]-N-hydroxy-acrylamide], the IC50 is 100 nM.
As for `O=C(/C=C/c1ccc(CN2CCN(Cc3ccc(Br)cc3)CC2)cc1)NO` [Compound 27, (E)-3-{4-[4-(4-Bromo-benzyl)-piperazin-1-ylmethyl]-phenyl}-N-hydroxy-acrylamide], the IC50 amounted to 130 nM.
As to `CCOC(=O)N1CCN(Cc2ccc(/C=C/C(=O)NO)cc2)CC1` [Compound 28, 4-[4-((E)-2-Hydroxycarbamoyl-vinyl)-benzyl]-piperazine-1-carboxylic acid ethyl ester], the 50% inhibitory concentration (IC50) stood at 170 nM.
For `O=C(/C=C/c1ccc(CN2CCN(C(=O)OCc3ccccc3)CC2)cc1)NO` [Compound 29, 4-[4-((E)-2-Hydroxycarbamoyl-vinyl)-benzyl]-piperazine-1-carboxylic acid benzyl ester], 140 nM corresponded to half-maximal inhibition (IC50).
The value for `Cn1c(N2CCN(Cc3ccc(/C=C/C(=O)NO)cc3)CC2)cccc1=O` [Compound 30, (E)-N-Hydroxy-3-{4-[4-(1-methyl-6-oxo-1,6-dihydro-pyridin-2-yl)-piperazin-1-ylmethyl]-phenyl}-acrylamide] was 170 nM; that for `O=C(/C=C/c1ccc(CN2CCN(c3nc4ccccc4n3C(=O)c3ccccc3)CC2)cc1)NO` [Compound 31, (E)-3-{4-[4-(1-Benzoyl-1H-benzoimidazol-2-yl)-piperazin-1-ylmethyl]-phenyl}-N-hydroxy-acrylamide] was 231 nM; that for `O=C(/C=C/c1ccc(CN2CCCCC2)cc1)NO` [Compound 33, (E)-N-Hydroxy-3-(4-piperidin-1-ylmethyl-phenyl)-acrylamide] was 100 nM.
As to `O=C(/C=C/c1ccc(CN2CCC3(CC2)OC(=O)Nc2ccccc23)cc1)NO` [Compound 34], the 50% inhibitory concentration (IC50) is 32 nM.
Compound `O=C(/C=C/c1ccc(CN2CCC(c3cc4ccccc4o3)CC2)cc1)NO` [Compound 35, (E)-3-[4-(4-Benzofuran-2-yl-piperidin-1-ylmethyl)-phenyl]-N-hydroxy-acrylamide] registered an IC50 of 46 nM.
Turning to `COc1cc(Br)c2oc(C3CCN(Cc4ccc(/C=C/C(=O)NO)cc4)CC3)cc2c1` [Compound 36, (E)-3-{4-[4-(7-Bromo-5-methoxy-benzofuran-2-yl)-piperidin-1-ylmethyl]-phenyl}-N-hydroxy-acrylamide], inhibition was half-maximal at 500 nM (IC50).
With `O=C(/C=C/c1ccc(CN2CCC3(CC2)NC(=O)N(CC2CC2)C3=O)cc1)NO` [Compound 37, (E)-3-[4-(3-Cyclopropylmethyl-2,4-dioxo-1,3,8-triaza-spiro[4.5]dec-8-ylmethyl)-phenyl]-N-hydroxy-acrylamide], the IC50 is less than 430 nM.
As for `O=C(/C=C/c1ccc(CN2CCC3(CCc4ccccc4O3)CC2)cc1)NO` [Compound 38, (E)-N-Hydroxy-3-(4-(spiro[chroman-2,4′-piperidine]-1′-ylmethyl)phenyl)acrylamide], the figure is 110 nM; as for `CS(=O)(=O)N1CC2(CCN(Cc3ccc(/C=C/C(=O)NO)cc3)CC2)c2ccccc21` [Compound 39], 27 nM.
The compound `O=C(/C=C/c1ccc(CN2CCC(c3ccc(Cl)cc3CN3CCCC3=O)CC2)cc1)NO` [Compound 40, (E)-3-(4-{4-[4-Chloro-2-(2-oxo-pyrrolidin-1-ylmethyl)-phenyl]-piperidin-1-ylmethyl}-phenyl)-N-hydroxy-acrylamide] registered a concentration for half-maximal inhibition (IC50) of 27 nM.
Regarding `O=C(/C=C/c1ccc(CN2CCC(N3CCc4ccccc4C3=O)CC2)cc1)NO` [Compound 41, (E)-N-Hydroxy-3-{4-[4-(1-oxo-3,4-dihydro-1H-isoquinolin-2-yl)-piperidin-1-ylmethyl]-phenyl}-acrylamide], the IC50 amounted to 16 nM.
The value for `CC(=O)N(C)CC1(c2ccccc2)CCN(Cc2ccc(/C=C/C(=O)NO)cc2)CC1` [Compound 42, (E)-3-(4-{4-[(Acetyl-methyl-amino)-methyl]-4-phenyl-piperidin-1-ylmethyl}-phenyl)-N-hydroxy-acrylamide] was 70 nM; that for `CN1C(=O)C2(CCN(Cc3ccc(/C=C/C(=O)NO)cc3)CC2)c2ccccc21` [Compound 43, (E)-N-Hydroxy-3-(4-((1-methyl-2-oxospiro[indoline-3,4′-piperidine]-1′-yl)methyl)phenyl)acrylamide] was 24 nM.
`O=C(/C=C/c1ccc(CN2CCC(N3CCNC3=O)CC2)cc1)NO` [Compound 44, (E)-N-Hydroxy-3-{4-[4-(2-oxo-imidazolidin-1-yl)-piperidin-1-ylmethyl]-phenyl}-acrylamide]: the IC50 stood at 50 nM.
For the compound `O=C(/C=C/c1ccc(CN2CCC(CC(=O)NO)(c3ccc(Cl)cc3)CC2)cc1)NO` [Compound 45, (E)-3-{4-[4-(4-Chloro-phenyl)-4-hydroxycarbamoylmethyl-piperidin-1-ylmethyl]-phenyl}-N-hydroxy-acrylamide], inhibition was half-maximal at 110 nM (IC50).
`O=C(/C=C/c1ccc(CN2CCOCC2)cc1)NO` [Compound 47, (E)-N-Hydroxy-3-(4-morpholin-4-ylmethyl-phenyl)-acrylamide] had an IC50 of 300 nM.
For the compound `O=C(/C=C/c1ccc(CN2CCC3(CC2)OCCO3)cc1)NO` [Compound 48, (E)-3-[4-(1,4-Dioxa-8-aza-spiro[4.5]dec-8-ylmethyl)-phenyl]-N-hydroxy-acrylamide], the IC50 turned out to be 130 nM.
In the case of `O=C(/C=C/c1ccc(CN2CCC(Cc3ccccc3)CC2)cc1)NO` [Compound 49, (E)-3-[4-(4-Benzyl-piperidin-1-ylmethyl)-phenyl]-N-hydroxy-acrylamide], the IC50 was 37 nM.
As for `O=C(/C=C/c1ccc(CN2CCN(S(=O)(=O)c3ccccc3)CC2)cc1)NO` [Compound 50, (E)-3-[4-(4-Benzenesulfonyl-piperazin-1-ylmethyl)-phenyl]-N-hydroxy-acrylamide], the figure is 230 nM.
Compound `O=C(/C=C/c1ccc(CN2CCN(C(=O)c3ccccc3)CC2)cc1)NO` [Compound 51, (E)-3-[4-(4-Benzoyl-piperazin-1-ylmethyl)-phenyl]-N-hydroxy-acrylamide] returned a half-maximal inhibitory concentration (IC50) of 110 nM.
The value for `CCC(=O)N1CCN(Cc2ccc(/C=C/C(=O)NO)cc2)CC1` [Compound 52, (E)-N-Hydroxy-3-[4-(4-propionyl-piperazin-l-ylmethyl)-phenyl]-acrylamide] was 350 nM.
Take `CC(C)(C)CC(=O)N1CCN(Cc2ccc(/C=C/C(=O)NO)cc2)CC1` [Compound 53, (E)-3-{4-[4-(3,3-Dimethyl-butyryl)-piperazin-1-ylmethyl]-phenyl}-N-hydroxy-acrylamide]: the IC50 is 160 nM.

(Values after patent US20110053925A1, “Hydroxamate-Based Inhibitors of Deacetylases” (Novartis AG, priority 2009, published 2011).)
